Reference: patent US20040116529A1, “Anticancer and chemopreventative agents and methods of use thereof” (priority 2001, published 2004)

Assays:
[1] = Serum DBM levels in TRAMP mice fed 1% DBM diet; assay type: in vivo, mouse
Excerpt: (§1) Two groups of TRAMP mice were studied, where one is a control cohort and the other is the cohort fed DBM.

[2] = test system: prostate specific antigen (PSA); assay: Extracellular PSA secreted by LNCaP cells exposed to DBM (ELISA analysis); assay type: cell-based, human; conditions: baseline about 700
Excerpt: (§2) LNCaP cells cultured in the presence of androgens secrete prostate specific antigen (PSA) into the culture medium.

[3] = test system: prostate specific antigen (PSA); assay: Intracellular PSA levels in LNCaP cells exposed to DBM (Western analysis); assay type: cell-based, human
Excerpt: as §2

[4] = test system: TRAMP (TRansgenic Adenocarcinoma of Mouse Prostate) mice; assay: Prostate carcinogenesis in TRAMP mice fed 1% DBM diet; assay type: in vivo
Excerpt: In other words, development of premalignant prostatic intraepithelial (PIN) neoplasia and primary adenocarcinoma of the prostate of TRAMP mice is similar to the development of prostate cancer in humans. TRAMP mice are discussed in greater detail in U.S. Pat. No. 5,907,087, which is incorporated herein by reference.
as §1

[5] = test system: human prostate cancer cells; assay: Proliferation of human prostate cancer cells in vitro; assay type: cell-based

O=C(CC(=O)c1ccccc1)c1ccccc1 [DBM, dibenzoylmethane]
serum levels of DBM ([1]; diet of 1% DBM from six weeks of age): 1000 nM | oral absorption from the gastrointestinal tract ([1]; oral DBM in diet): orally bioavailable | Extracellular PSA ([2]; 25 micromolar DBM): ~150 nanograms per milliliter | Extracellular PSA ([2]; 50 micromolar DBM): ~100 nanograms per milliliter | Extracellular PSA ([2]; at micromolar DBM (concentration not given)): approximately 200 nanograms per milliliter | DBM concentration at which intracellular PSA is not readily detectable by Western analysis [3]: ≥ 10 µM | PSA levels ([3]; DBM at 10, 25 and 50 micromolar): dose-dependent down regulation | cancer and high-grade prostatic intraepithelial neoplasia versus control cohort ([4]; 1% DBM diet, at 18 weeks): significantly less cancer and high-grade prostatic intraepithelial neoplasia | mice developing either adenocarcinoma or high grade PIN ([4]; diet of 1% DBM (weight/weight) in AIN-76A from six weeks of age, control cohort 6 of 10): 2 of 11 | proliferation of human prostate cancer cells in vitro [5]: inhibit proliferation
